Assay results: US12516058B2, “Small-molecule compounds for controlling endosomal toll-like receptors and therapeutic agent for autoimmune diseases using same” (priority 2020, dated 2026)
“Also recorded” adds a separate entry of the source.

molecular target: T1, TLR9 (Mus musculus, UniProt Q9EQU3); experiment: TNF-α secretion ELISA after TLR9 agonist ODN2395 in RAW 264.7 cells; type: cell-based; details: SK01 and structural derivatives, inhibitor 1 h, then ODN2395 4 h
T1 construct: endogenous in cells; host or cells: RAW 264.7
T1 sequence (Q9EQU3 26-1032): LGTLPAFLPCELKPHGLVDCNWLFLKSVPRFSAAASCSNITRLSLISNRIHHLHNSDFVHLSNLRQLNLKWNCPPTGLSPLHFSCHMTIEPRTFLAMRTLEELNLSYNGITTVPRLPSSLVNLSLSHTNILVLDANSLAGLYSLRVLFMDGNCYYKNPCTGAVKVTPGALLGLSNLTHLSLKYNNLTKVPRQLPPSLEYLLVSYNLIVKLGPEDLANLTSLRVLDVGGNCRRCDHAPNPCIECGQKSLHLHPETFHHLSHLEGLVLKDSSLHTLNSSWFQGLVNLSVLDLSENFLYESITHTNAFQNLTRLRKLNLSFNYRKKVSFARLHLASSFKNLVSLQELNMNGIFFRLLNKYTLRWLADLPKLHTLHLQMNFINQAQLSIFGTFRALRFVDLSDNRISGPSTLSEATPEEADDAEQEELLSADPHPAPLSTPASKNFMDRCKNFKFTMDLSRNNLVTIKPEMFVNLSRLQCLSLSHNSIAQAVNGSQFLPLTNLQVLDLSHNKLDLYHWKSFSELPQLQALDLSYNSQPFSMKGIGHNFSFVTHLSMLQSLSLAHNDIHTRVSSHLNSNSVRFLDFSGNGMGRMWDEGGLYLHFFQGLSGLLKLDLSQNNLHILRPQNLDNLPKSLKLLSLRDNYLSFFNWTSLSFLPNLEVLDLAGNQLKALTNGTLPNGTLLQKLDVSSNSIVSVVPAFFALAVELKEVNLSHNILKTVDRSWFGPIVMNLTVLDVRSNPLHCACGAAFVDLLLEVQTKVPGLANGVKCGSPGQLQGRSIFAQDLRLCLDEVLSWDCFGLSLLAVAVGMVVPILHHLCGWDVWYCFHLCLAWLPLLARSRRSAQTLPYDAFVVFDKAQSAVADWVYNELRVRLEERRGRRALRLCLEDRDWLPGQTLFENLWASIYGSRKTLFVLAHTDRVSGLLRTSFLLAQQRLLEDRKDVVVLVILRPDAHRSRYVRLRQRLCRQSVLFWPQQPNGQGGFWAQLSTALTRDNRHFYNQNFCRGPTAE
Procedure: In order to determine the inhibitory activities of the test-ligand, RAW 264.7 cells were pretreated with each candidate compound for 1 hour, then treated with Pam3CSK4 (synthetic triacyl lipopeptide; TLR1/2, Invitrogen), FSL-1 (synthetic diacyl lipoprotein, TLR2/6, 100 ng/ml), lipopolysaccharide (LPS, TLR4, Sigma Aldrich), imiquimod (IMQ, TLR7, Invitrogen), and ODN2395 (type C CpG repeat motif DNA oligo(5′-[…]-3), TLR9, Bioneer) ligand for 4 hours, and treated with poly I:C (I:C repeat motif double-stranded RNA, TLR3, Invitrogen) and TL8-506 (TLR8, Invitrogen) showing delayed reactivity for 24 hours. After activation of TLR, the supernatant was diluted in an appropriate ratio so as to measure within the standard dose range, transferred to a pre-coated 96-well assay plate, and then treated with mouse TNF-alpha secretion level in accordance with the manufacturer's instructions using a mouse-TNF-alpha ELISA-kit (Invitrogen).
In order to plot the concentration-dependent LC50 curves, treatment with the SK series ligands at different concentrations up to 200 μM (the highest concentration that could be treated within the level of 0.5% DMSO) was performed. Then, cell viability and toxicity response upon treatment with ligands were analyzed by MTT as described in Examples 1-3. Cell viability in each plot was normalized from negative control (100%; no treatment) to positive control (highest concentration of test-ligand), and LC50 was determined by non-linear regression (Graph Pad Prism 7.0). In order to plot the concentration-dependent IC50 curves, pre-treatment with the SK series ligands was performed at different concentrations up to 50 μM (twice the initial concentration). Cell responses mediated by TLR7 and TLR9 (levels of TNF-α secretion) were analyzed by ELISA as described in Examples 1-4. The cytokine level in each plot was normalized from negative control (non-treated) to positive control (treatment with ligand), and IC50 was determined by non-linear regression (Graph Pad Prism 7.0).
In order to select potential inhibitory molecules against TLR3/TLR7/TLR8/TLR9 activation, first, MTT (3-(4,5-dimethylthiazol-2-yl)-2,5-diphenyltetrazolium bromide) cell viability assay (FIG. 7) was performed upon treatment with a set of ligands from SK21 to SK82 at a concentration of 20 μM and the inhibitory activity thereof was evaluated by an ELISA assay to monitor the level of TNF-α secretion in RAW 264.7 cells. The experimental ligands from SK21 to SK82 were administered at 0.5 μM or 2 μM to the RAW 264.7 cells and stimulated with Imiquimod (TLR7, 1 μg/ml) and OND2395 (TLR9, 0.5 μM).

| SMILES | inhibitory activity against TLR9 activation (TNF-α secretion) |
| --- | --- |
| Cc1c(C)n(CCN(C)C)c2nc3c(c(N)c12)CCCCC3 [SK01, 1-(2-(dimethylamino)ethyl)-2,3-dimethyl-1,5,6,7,8,9-hexahydrocyclohepta[b]pyrrolo[3,2-e]pyridin-4-amine] | inhibitory ability for TLR7/TLR9 activation was verified; also recorded: specifically inhibit |
| Cc1c(C)n(CCCN(C)C)c2nc3c(c(N)c12)CCCCC3 [SK16, 1-(3-(dimethylamino)propyl)-2,3-dimethyl-1,5,6,7,8,9-hexahydrocyclohepta[b]pyrrolo[3,2-e]pyridin-4-amine] | potent inhibitor; also recorded: best inhibitory activity among the structural analogues of SK01; also recorded: specifically inhibit |

same assay, conditions: SK21 to SK82 at 0.5 μM or 2 μM, ODN2395 0.5 μM

| SMILES | inhibitory activity against TLR9 (level of TNF-α secretion) |
| --- | --- |
| Cc1cc2c(N)c3c(nc2n1CCCN(C)C)CCCCCC3 [SK41, 1-(3-(dimethylamino)propyl)-2-methyl-5,6,7,8,9,10-hexahydro-1H-cycloocta[b]pyrrolo[3,2-e]pyridin-4-amine] | significant inhibitory activity; also recorded: significantly reduced |
| COc1ccc2c(c1)c1c(N)c3c(nc1n2CCCN(C)C)CCCC3 [SK50, 6-(3-(dimethylamino)propyl)-9-methoxy-2,3,4,6-tetrahydro-1H-indolo[2,3-b]quinolin-11-amine] | significant inhibitory activity; also recorded: significantly reduced |
| Cc1ccc2c(c1)c1c(N)c3c(nc1n2CCCN(C)C)CCCC3 [SK58, 6-(3-(dimethylamino)propyl)-9-methyl-2,3,4,6-tetrahydro-1H-indolo[2,3-b]quinolin-11-amine] | significant inhibitory activity; also recorded: significantly reduced |
| COC(=O)c1ccc2c(c1)c1c(N)c3c(nc1n2CCCN(C)C)CCCC3 [SK64, Methyl 11-amino-6-(3-(dimethylamino)propyl)-2,3,4,6-tetrahydro-1H-indolo[2,3-b]quinolin-9-carboxylate] | significant inhibitory activity; also recorded: significantly reduced |
